Measured values: patent US6087119A, “Method for determining the catalytic activity of factor IXa” (Roche Diagnostics GmbH, priority 1996, dated 2000)
“And” between values parts separate entries of the source, which are not always exact repeats. Identical values can stand only once. Like-named read-outs stand apart in the source and are kept apart here.

Legend:
FXIa (human) = FXIa (human) (Homo sapiens, UniProt P03951); details: FXIa 0.0012 μmol/l, MeSO2-D-HHT-Gly-Arg-pNA 1.02 mmol/l, pH 7.4
From the text: FXIa Test Mixture (Concentration in the Test)
(§1) 42 mmol/l Tris-HCl, pH 7.4
(§2) 1.02 mmol/l MeSO2 -D-HHT-Gly-Arg-pNA
0.0012 μmol/l FXIa (human)
(§3) 0-50% ethanol or ethylene glycol

rFIXa (human) [1] = target: T1, rFIXa (human) (Homo sapiens, UniProt P00740); assay: Influence of alcohols and organic solvents on the activity of rFIXa, chromogenic peptide substrates; assay type: biochemical; set-up: coding for the FIX protease domain from amino acid position 181 to 415; Met (ATG start codon) (N); made in house; details: for V/V0: pH 7.4
Description: The reaction was started by adding FIXa.
MeSO2 -D-HHT-Gly-Arg-pNA→MeSO2 -D-HHT-Gly-Arg+pNA measurement signal: pNA
0.48 μmol/l rFIXa (human)
0-50% (alcohol or organic solvent)
The ratio V/V0 was calculated to illustrate the stimulation of the catalytic activity of rFIXa.
V0, reaction rate without additives
V, reaction rate in the presence of additives
Test Mixture Chromogenic (Concentration in the Test)
Target sequence in this assay (P00740 227-461 limits assumed): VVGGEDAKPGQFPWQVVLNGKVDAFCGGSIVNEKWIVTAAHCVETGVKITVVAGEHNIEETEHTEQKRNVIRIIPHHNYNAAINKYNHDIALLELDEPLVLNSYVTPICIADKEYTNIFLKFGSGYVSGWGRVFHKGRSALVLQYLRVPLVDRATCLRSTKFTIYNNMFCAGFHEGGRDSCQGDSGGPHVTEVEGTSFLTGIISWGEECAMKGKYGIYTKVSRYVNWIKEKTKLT
Target sequence in this assay (P00740 131-226 partner limits assumed): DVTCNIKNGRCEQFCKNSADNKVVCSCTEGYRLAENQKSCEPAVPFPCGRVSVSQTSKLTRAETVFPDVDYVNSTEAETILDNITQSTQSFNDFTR

thrombin (bovine) = thrombin (bovine) (Bos taurus, UniProt P00735); details: thrombin 0.045 μmol/l, MeSO2-D-HHT-Gly-Arg-pNA 1.02 mmol/l, pH 7.4
From the text: Thrombin Test Mixture (Concentration in the Test)
as §1, §2
0.045 μmol/l thrombin (bovine)
as §3

FXIIa (human) = FXIIa (human) (Homo sapiens, UniProt P00748); details: FXIIa 0.0045 U/ml, MeSO2-D-HHT-Gly-Arg-pNA 1.02 mmol/l, pH 7.4
Chain of FXIIa (human) (P00748 373-615 limits assumed, other chains not shown): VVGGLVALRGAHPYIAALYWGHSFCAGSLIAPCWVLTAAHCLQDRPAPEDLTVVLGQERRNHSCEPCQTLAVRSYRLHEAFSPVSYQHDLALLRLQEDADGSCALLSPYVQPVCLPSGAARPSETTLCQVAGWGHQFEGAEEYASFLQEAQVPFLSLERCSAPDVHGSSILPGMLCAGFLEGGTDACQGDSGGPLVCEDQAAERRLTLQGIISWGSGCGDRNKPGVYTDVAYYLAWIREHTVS
From the text: FXIIa Test Mixture (Concentration in the Test)
as §1, §2
0.0045 U/ml FXIIa (human)
as §3

[2] = target: plasma kallikrein (human) (Homo sapiens, UniProt P03952); details: PKallikrein 0.0176 U/ml, MeSO2-D-HHT-Gly-Arg-pNA 1.02 mmol/l, pH 7.4
Chain of plasma kallikrein (human) (P03952 391-638 limits assumed): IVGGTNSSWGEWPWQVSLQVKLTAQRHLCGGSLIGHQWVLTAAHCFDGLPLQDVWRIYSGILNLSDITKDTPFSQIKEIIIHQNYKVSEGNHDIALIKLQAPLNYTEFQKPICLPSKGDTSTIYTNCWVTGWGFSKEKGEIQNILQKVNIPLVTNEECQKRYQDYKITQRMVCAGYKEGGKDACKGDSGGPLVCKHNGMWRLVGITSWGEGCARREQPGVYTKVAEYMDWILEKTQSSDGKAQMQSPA
Chain of plasma kallikrein (human) (P03952 20-390 partner limits assumed): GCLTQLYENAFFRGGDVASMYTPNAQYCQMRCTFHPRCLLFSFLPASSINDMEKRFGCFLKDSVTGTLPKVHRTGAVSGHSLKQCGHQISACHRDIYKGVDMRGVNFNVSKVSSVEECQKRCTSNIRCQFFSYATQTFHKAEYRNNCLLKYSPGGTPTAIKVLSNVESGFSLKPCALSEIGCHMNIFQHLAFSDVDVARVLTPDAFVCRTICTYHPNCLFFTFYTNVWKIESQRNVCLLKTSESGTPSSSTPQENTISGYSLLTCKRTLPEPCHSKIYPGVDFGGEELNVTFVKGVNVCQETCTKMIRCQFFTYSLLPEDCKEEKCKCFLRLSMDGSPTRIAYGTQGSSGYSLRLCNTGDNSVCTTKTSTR
From the text: Plasma Kallikrein Test Mixture (Concentration in the Test)
as §1, §2
0.0176 U/ml plasma kallikrein (human)
as §3

FXa (bovine) = FXa (bovine) (Bos taurus, UniProt P00743); details: FXa 0.088 μmol/l, MeSO2-D-HHT-Gly-Arg-pNA 1.02 mmol/l, pH 7.4
Chain of FXa (bovine) (P00743 234-492 limits assumed): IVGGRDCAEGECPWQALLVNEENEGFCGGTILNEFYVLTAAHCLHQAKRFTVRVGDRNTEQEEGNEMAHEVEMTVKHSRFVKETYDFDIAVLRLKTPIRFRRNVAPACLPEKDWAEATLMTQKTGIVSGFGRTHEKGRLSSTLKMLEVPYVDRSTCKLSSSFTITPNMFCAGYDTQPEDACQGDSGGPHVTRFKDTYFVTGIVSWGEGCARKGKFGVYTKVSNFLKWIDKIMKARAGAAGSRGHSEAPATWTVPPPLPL
Chain of FXa (bovine) (P00743 41-180 partner limits assumed): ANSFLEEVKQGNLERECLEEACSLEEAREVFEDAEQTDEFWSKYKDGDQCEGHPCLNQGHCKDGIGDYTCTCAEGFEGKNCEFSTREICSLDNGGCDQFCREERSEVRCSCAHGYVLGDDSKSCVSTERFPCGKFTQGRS
From the text: FXa Test Mixture (concentration in the Test)
as §1, §2
0.088 μmol/l FXa (bovine)
as §3

rFIXa (human) [3] = target: T1, rFIXa (human); details: fluorogenic MeSO2-D-CHA-Gly-Arg-AMC 0.51 mmol/l, 0.08 μmol/l rFIXa, pH 7.4
From the text: The stimulation of human rFIXa by ethanol and ethylene glycol was examined using the peptide substrates MeSO2 -D-HHT-Gly-Arg-pNA (Pefachrom tPA, Pentapharm Ltd., Basel, Switzerland), MOC-D-Nle-Gly-Arg-pNA (Chromozym X, Boehringer Mannheim GmbH, Mannheim, Germany, Cat.No. 789763), MeSO2 -D-CHG-Gly-Arg-pNA (Pentapharm Ltd., Basel, Switzerland), MeSO2 -D-CHA-Gly-Arg-pNA (Pentapharm Ltd., Basel, Switzerland) and MeSO2 -D-CHA-Gly-Arg-AMC (Pentapharm Ltd., Basel, Switzerland).
Test Mixture Fluorogenic (Concentration in the Test)
0.51 mmol/l MeSO2 -D-CHA-Gly-Arg-AMC
0.08 μmol/l rFIXa (human)
Target sequence in this assay (P00740 227-461): as the sequence (P00740 227-461 limits assumed) above
Target sequence in this assay (P00740 131-226): as the sequence (P00740 131-226 partner limits assumed) above

native FIXa (human) = native FIXa (human) (Homo sapiens, UniProt P00740); details: pH 7.4; for V/V0: MeSO2-D-HHT-Gly-Arg-pNA 1.02 mmol/l, 0.14 μmol/l native FIXa
Chain of native FIXa (human) (P00740 227-461 limits assumed): as the sequence (P00740 227-461 limits assumed) above
Chain of native FIXa (human) (P00740 47-191 partner limits assumed): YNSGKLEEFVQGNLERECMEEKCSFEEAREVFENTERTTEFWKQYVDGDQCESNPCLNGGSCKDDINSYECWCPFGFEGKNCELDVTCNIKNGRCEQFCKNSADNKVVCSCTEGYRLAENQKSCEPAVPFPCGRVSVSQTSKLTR
Description: The FIXa test was carried out with recombinantly produced native human FIXa as a sample and the peptide substrate MeSO2 -D-HHT-Gly-Arg-pNA (Pefachrom tPA, Pentapharm Ltd., Basel, Switzerland) or other chromogenic/fluorogenic substrates of the R-D-Xxx-Gly-Arg-pNA type (EP-B 0 034 122) in Tris-HCl buffer and the substances to be tested (alcohol, solvents and inhibitors). The reaction was started by adding FIXa.
The test mixture was incubated at room temperature (25° C.) in a microtitre plate and the change in absorbance (ΔA/min) was measured at 405 nm using an ELISA reader. The activity and the kinetic constants were determined from the linear initial slope according to the Michaelis-Menten equation.
as §2
0.14 μmol/l native FIXa (human)
as §3
FIXa Test Mixture (Concentration in the Test)

Chain of FXIa (human) (P03951 388-625 limits assumed): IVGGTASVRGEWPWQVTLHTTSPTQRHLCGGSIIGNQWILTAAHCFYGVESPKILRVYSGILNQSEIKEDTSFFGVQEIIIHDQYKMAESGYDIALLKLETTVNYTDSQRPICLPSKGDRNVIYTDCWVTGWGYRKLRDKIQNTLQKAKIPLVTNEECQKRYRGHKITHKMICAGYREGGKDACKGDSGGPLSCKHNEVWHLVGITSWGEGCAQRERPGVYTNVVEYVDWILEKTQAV
Chain of FXIa (human) (P03951 19-387 partner limits assumed): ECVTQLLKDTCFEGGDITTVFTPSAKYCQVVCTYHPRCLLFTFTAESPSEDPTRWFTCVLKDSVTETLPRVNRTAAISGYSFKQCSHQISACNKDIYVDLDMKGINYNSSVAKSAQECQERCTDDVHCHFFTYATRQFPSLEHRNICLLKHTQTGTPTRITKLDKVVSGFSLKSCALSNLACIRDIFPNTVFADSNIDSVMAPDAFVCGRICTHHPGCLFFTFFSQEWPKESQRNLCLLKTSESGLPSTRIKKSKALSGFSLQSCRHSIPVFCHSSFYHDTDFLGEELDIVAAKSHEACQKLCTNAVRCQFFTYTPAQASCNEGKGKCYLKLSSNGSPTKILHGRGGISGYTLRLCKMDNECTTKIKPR

Structure (SMILES): OCCO [Ethylene glycol]
- V/V0 (FXIa (human); 8% alcohol): 0.922
- V/V0 (FXIa (human); 16% alcohol): 0.790
- V/V0 (FXIa (human); 25% alcohol): 0.569
- V/V0 (FXIa (human); 33% alcohol): 0.422
- V/V0 (FXIa (human); 41% alcohol): 0.275
- V/V0 (FXIa (human); 50% alcohol): 0.165
- V/V0 (rFIXa (human) [1]; 8% additive, MOC-D-Nle-Gly-Arg-pNA 0.82 mmol/l, 0.48 μmol/l rFIXa): 3.91
- V/V0 (rFIXa (human) [1]; 8% additive, MeSO2-D-CHA-Gly-Arg-pNA 1.02 mmol/l, 0.48 μmol/l rFIXa): 2.84
- V/V0 (rFIXa (human) [1]; 8% additive, MeSO2-D-CHG-Gly-Arg-pNA 1.02 mmol/l, […] rFIXa): 5.47
- V/V0 (rFIXa (human) [1]; 8% additive, MeSO2-D-HHT-Gly-Arg-pNA 1.02 mmol/l, 0.48 μmol/l rFIXa): 2.91
- V/V0 (rFIXa (human) [1]; 16% additive, MOC-D-Nle-Gly-Arg-pNA 0.82 mmol/l, 0.48 μmol/l rFIXa): 8.85
- V/V0 (rFIXa (human) [1]; 16% additive, MeSO2-D-CHA-Gly-Arg-pNA 1.02 mmol/l, 0.48 μmol/l rFIXa): 6.26
- V/V0 (rFIXa (human) [1]; 16% additive, MeSO2-D-CHG-Gly-Arg-pNA 1.02 mmol/l, […] rFIXa): 13.13
- V/V0 (rFIXa (human) [1]; 16% additive, MeSO2-D-HHT-Gly-Arg-pNA 1.02 mmol/l, 0.48 μmol/l rFIXa): 6.05
- V/V0 (rFIXa (human) [1]; 25% additive, MOC-D-Nle-Gly-Arg-pNA 0.82 mmol/l, 0.48 μmol/l rFIXa): 17.07
- V/V0 (rFIXa (human) [1]; 25% additive, MeSO2-D-CHA-Gly-Arg-pNA 1.02 mmol/l, 0.48 μmol/l rFIXa): 9.34
- V/V0 (rFIXa (human) [1]; 25% additive, MeSO2-D-CHG-Gly-Arg-pNA 1.02 mmol/l, […] rFIXa): 19.37
- V/V0 (rFIXa (human) [1]; 25% additive, MeSO2-D-HHT-Gly-Arg-pNA 1.02 mmol/l, 0.48 μmol/l rFIXa): 10.27
- V/V0 (rFIXa (human) [1]; 33% additive, MOC-D-Nle-Gly-Arg-pNA 0.82 mmol/l, 0.48 μmol/l rFIXa): 22.42
- V/V0 (rFIXa (human) [1]; 33% additive, MeSO2-D-CHA-Gly-Arg-pNA 1.02 mmol/l, 0.48 μmol/l rFIXa): 11.18 and 11
- V/V0 (rFIXa (human) [1]; 33% additive, MeSO2-D-CHG-Gly-Arg-pNA 1.02 mmol/l, […] rFIXa): 23.20
- V/V0 (rFIXa (human) [1]; 33% additive, MeSO2-D-HHT-Gly-Arg-pNA 1.02 mmol/l, 0.48 μmol/l rFIXa): 12.68
- V/V0 (rFIXa (human) [1]; 41% additive, MOC-D-Nle-Gly-Arg-pNA 0.82 mmol/l, 0.48 μmol/l rFIXa): 17.80
- V/V0 (rFIXa (human) [1]; 41% additive, MeSO2-D-CHA-Gly-Arg-pNA 1.02 mmol/l, 0.48 μmol/l rFIXa): 7.54
- V/V0 (rFIXa (human) [1]; 41% additive, MeSO2-D-CHG-Gly-Arg-pNA 1.02 mmol/l, […] rFIXa): 17.40
- V/V0 (rFIXa (human) [1]; 41% additive, MeSO2-D-HHT-Gly-Arg-pNA 1.02 mmol/l, 0.48 μmol/l rFIXa): 9.68
- V/V0 (rFIXa (human) [1]; 50% additive, MOC-D-Nle-Gly-Arg-pNA 0.82 mmol/l, 0.48 μmol/l rFIXa): 6.96
- V/V0 (rFIXa (human) [1]; 50% additive, MeSO2-D-CHA-Gly-Arg-pNA 1.02 mmol/l, 0.48 μmol/l rFIXa): 2.56
- V/V0 (rFIXa (human) [1]; 50% additive, MeSO2-D-CHG-Gly-Arg-pNA 1.02 mmol/l, […] rFIXa): 5.67
- V/V0 (rFIXa (human) [1]; 50% additive, MeSO2-D-HHT-Gly-Arg-pNA 1.02 mmol/l, 0.48 μmol/l rFIXa): 3.41
- quotient V/V0 relative to that with substrate MeSO2-D-HHT-Gly-Arg-pNA (rFIXa (human) [1]; above 25% ethylene glycol, substrates MOC-D-Nle-Gly-Arg-pNA and MeSO2-D-CHG-Gly-Arg-pNA): 1.5-2 fold
- stimulation of the activity of rFIXa (rFIXa (human) [1]; concentration range of 15-40%): 5-15 fold
- V/V0 (thrombin (bovine); 8% alcohol): 0.924
- V/V0 (thrombin (bovine); 16% alcohol): 0.862
- V/V0 (thrombin (bovine); 25% alcohol): 0.763
- V/V0 (thrombin (bovine); 33% alcohol): 0.653
- V/V0 (thrombin (bovine); 41% alcohol): 0.508
- V/V0 (thrombin (bovine); 50% alcohol): 0.395
- V/V0 (FXIIa (human); 8% alcohol): 0.892
- V/V0 (FXIIa (human); 16% alcohol): 0.729
- V/V0 (FXIIa (human); 25% alcohol): 0.551
- V/V0 (FXIIa (human); 33% alcohol): 0.355
- V/V0 (FXIIa (human); 41% alcohol): 0.187
- V/V0 (FXIIa (human); 50% alcohol): 0.103
- V/V0 ([2]; 8% alcohol): 1.05
- V/V0 ([2]; 16% alcohol): 0.763
- V/V0 ([2]; 25% alcohol): 0.676
- V/V0 ([2]; 33% alcohol): 0.536
- V/V0 ([2]; 41% alcohol): 0.478
- V/V0 ([2]; 50% alcohol): 0.290
- V/V0 (FXa (bovine); 8% alcohol): 0.973
- V/V0 (FXa (bovine); 16% alcohol): 0.902
- V/V0 (FXa (bovine); 25% alcohol): 0.741
- V/V0 (FXa (bovine); 33% alcohol): 0.558
- V/V0 (FXa (bovine); 41% alcohol): 0.347
- V/V0 (FXa (bovine); 50% alcohol): 0.191
- V/V0 (rFIXa (human) [3]; 8% additive): 2.55
- V/V0 (rFIXa (human) [3]; 16% additive): 5.59
- V/V0 (rFIXa (human) [3]; 25% additive): 8.40
- V/V0 (rFIXa (human) [3]; 33% additive): 8.90 and 9
- V/V0 (rFIXa (human) [3]; 41% additive): 5.79
- V/V0 (rFIXa (human) [3]; 50% additive): 1.44
- activation among plasma kallikrein, FXIIa, FXIa, FIXa, FXa and thrombin (in words) (native FIXa (human); 0-50% alcohol, MeSO2-D-HHT-Gly-Arg-pNA): only FIXa is activated
- V/V0 (native FIXa (human); 8% additive): 3.13
- V/V0 (native FIXa (human); 16% additive): 6.19
- V/V0 (native FIXa (human); 25% additive): 9.36
- V/V0 (native FIXa (human); 33% additive): 12.21
- V/V0 (native FIXa (human); 41% additive): 8.29
- V/V0 (native FIXa (human); 50% additive): 3.92
